Read-outs that look alike come from different tables or passages of the source.
What was measured:
[1] = Microsomal stability assay; type: in vitro ADME
Protocol: Microsomal stability was determined by Absorption Systems (Exton, PA). INX-315 was tested in mixed-gender human liver microsomes (Lot #1010420), male Sprague-Dawley rat liver microsomes (Lot #1910100), male CD-1 mouse liver microsomes (Lot #2010017), and male beagle dog liver microsomes (Lot #2010046) were purchased from XenoTech/BioIVT by Absorption Systems. The reaction mixture, minus NADPH, was prepared as described below. The test article was added into the reaction mixture at a final concentration of 1 µmol/L. The control compound, testosterone, was run simultaneously with the test article in a separate reaction. The reaction mixture (without cofactor) was equilibrated in a shaking water bath at 37°C for 5 minutes. The reaction was initiated by the addition of the cofactor, and the mixture was incubated in a shaking water bath at 37°C. Aliquots (100 µL) were withdrawn at 0, 10, 20, 30, and 60 minutes. Test article and testosterone samples were immediately combined with 400 µL of ice-cold 50/50 acetonitrile (ACN)/H2O containing 0.1% formic acid and internal standard to terminate the reaction. The samples were then mixed and centrifuged to precipitate proteins. All samples were assayed by LC-MS/MS using electrospray ionization. The peak area response ratio (PARR) of analyte to internal standard at each time point was compared to the PARR at time 0 to determine the percent remaining at each time point. Half-lives and clearance were calculated using GraphPad software (RRID:SCR_002798), fitting to a single-phase exponential decay equation.

[2] = target: T1, CDK1/cyclin B1 (Homo sapiens, UniProt P06493); assay: NanoBRET live cell target engagement; type: binding
T1 construct: purchased Millipore 14-450M
Protocol: (§1) Reaction Bio (Malvern, PA) conducted NanoBRET assays utilizing Promega NanoLuc technology with two replicates per experiment. The CDK2/E1 and CDK1/B1 values are the average of two separate experiments.
(§2) HEK293 cells were transfected using Opti-MEM without serum containing ratios of 9.0 µg/mL of Transfection Carrier DNA, 1.0 µg/mL of NanoLuc fusion vector DNA and 1 mL of Opti-MEM without phenol red. 30 µL of FuGENE HD transfection reagent was added to each milliliter of DNA mixture to form lipid:DNA complex. After incubation for 20 minutes at room temperature, 1 part lipid/DNA complex was added to 20 parts HEK293 cells in suspension. Cells were then plated and incubated overnight before being trypsinized and resuspended at 2 × 10^5 cells/mL. NanoBRET tracer reagent was added to cells at a ratio of 1 part tracer to 20 parts cell suspension. Cells were added to a 384-well plate and incubated for 1 hour. Plates were removed and incubated at room temperature for 15 minutes to equilibrate before 3x complete substrate plus inhibitor was added. After 2–3 minutes of incubation at room temperature, donor and acceptor wavelengths (460 nm and 600 nm, respectively) were measured using an Envision 2104 plate reader.

[3] = target: T2, CDK2/cyclin E1 (Homo sapiens, UniProt P24941); assay: NanoBRET live cell target engagement; type: binding
T2 construct: purchased Millipore 14-475
Protocol: as §1, §2

[4] = target: T3, CDK2/cyclin A1 (Homo sapiens, UniProt P24941); assay: NanoBRET live cell target engagement; type: binding
T3 construct: host or cells: HEK293
Protocol: as §1, §2

[5] = target: T4, CDK9/cyclin T1 (Homo sapiens, UniProt P50750); assay: NanoBRET live cell target engagement; type: binding
T4 construct: purchased Carna 04-110
Protocol: as §1, §2

[6] = target: T5, FLT3 D835Y (Homo sapiens, UniProt P36888, D835Y); assay: SelectScreen ZLYTE; type: biochemical; details: INX-0315 at 100nM
T5 construct: purchased Thermo Fisher Scientific SelectScreen (plus Nanosyn / Reaction Biology for CDK/cyclin lines)
Outline: (§3)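 Kinase profiling used the provider's preestablished standard conditions. A primary screen tested INX-315 at a single 100 nmol/L in 1% DMSO. Follow-up testing used 10-point dose–response curves running from 1 µmol/L down to 0.0495 nmol/L.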

[7] = target: T6, TEK (TIE2) Y897S (Homo sapiens, UniProt Q02763, Y897S); assay: SelectScreen ZLYTE; type: biochemical; details: INX-0315 at 100nM
T6 construct: purchased Thermo Fisher Scientific SelectScreen (plus Nanosyn / Reaction Biology for CDK/cyclin lines)
Outline: as §3

[8] = target: T7, ABL1 G250E (Homo sapiens, UniProt P00519, G250E); assay: SelectScreen ZLYTE; type: biochemical; details: INX-0315 at 100nM
T7 construct: purchased Thermo Fisher Scientific SelectScreen (plus Nanosyn / Reaction Biology for CDK/cyclin lines)
Outline: as §3

[9] = target: T8, NTRK1 (TRKA) (Homo sapiens, UniProt P04629); assay: SelectScreen ZLYTE; type: biochemical; details: INX-0315 at 100nM
T8 construct: purchased Thermo Fisher Scientific SelectScreen (plus Nanosyn / Reaction Biology for CDK/cyclin lines)
Outline: as §3

[10] = target: T9, CHEK1 (CHK1) (Homo sapiens, UniProt O14757); assay: SelectScreen ZLYTE; type: biochemical; details: INX-0315 at 100nM
T9 construct: purchased Thermo Fisher Scientific SelectScreen (plus Nanosyn / Reaction Biology for CDK/cyclin lines)
Outline: as §3

[11] = target: T10, RET Y791F (Homo sapiens, UniProt P07949, Y791F); assay: SelectScreen ZLYTE; type: biochemical; details: INX-0315 at 100nM
T10 construct: purchased Thermo Fisher Scientific SelectScreen (plus Nanosyn / Reaction Biology for CDK/cyclin lines)
Outline: as §3

[12] = target: T11, ABL1 T315I (Homo sapiens, UniProt P00519, T315I); assay: SelectScreen ZLYTE; type: biochemical; details: INX-0315 at 100nM
T11 construct: purchased Thermo Fisher Scientific SelectScreen (plus Nanosyn / Reaction Biology for CDK/cyclin lines)
Outline: as §3

[13] = target: T12, MARK2 (Homo sapiens, UniProt Q7KZI7); assay: SelectScreen ZLYTE; type: biochemical; details: INX-0315 at 100nM
T12 construct: purchased Thermo Fisher Scientific SelectScreen (plus Nanosyn / Reaction Biology for CDK/cyclin lines)
Outline: as §3

[14] = target: T13, DYRK3 (Homo sapiens, UniProt O43781); assay: SelectScreen ZLYTE; type: biochemical; details: INX-0315 at 100nM
T13 construct: purchased Thermo Fisher Scientific SelectScreen (plus Nanosyn / Reaction Biology for CDK/cyclin lines)
Outline: as §3

[15] = target: T14, ERBB2 (HER2) (Homo sapiens, UniProt P04626); assay: SelectScreen ZLYTE; type: biochemical; details: INX-0315 at 100nM
T14 construct: purchased Thermo Fisher Scientific SelectScreen (plus Nanosyn / Reaction Biology for CDK/cyclin lines)
Outline: as §3

[16] = target: T15, MAPKAPK5 (PRAK) (Homo sapiens, UniProt Q8IW41); assay: SelectScreen ZLYTE; type: biochemical; details: INX-0315 at 100nM
T15 construct: purchased Thermo Fisher Scientific SelectScreen (plus Nanosyn / Reaction Biology for CDK/cyclin lines)
Outline: as §3

[17] = target: T16, CDK17/cyclin Y (Homo sapiens, UniProt Q00537); assay: SelectScreen ZLYTE; type: biochemical; details: INX-0315 at 100nM
T16 construct: purchased Thermo Fisher Scientific SelectScreen (plus Nanosyn / Reaction Biology for CDK/cyclin lines)
Outline: as §3

[18] = target: T17, AKT1 (PKB alpha) (Homo sapiens, UniProt P31749); assay: SelectScreen ZLYTE; type: biochemical; details: INX-0315 at 100nM
T17 construct: purchased Thermo Fisher Scientific SelectScreen (plus Nanosyn / Reaction Biology for CDK/cyclin lines)
Outline: as §3

[19] = target: T18, PDGFRA V561D (Homo sapiens, UniProt P16234, V561D); assay: SelectScreen ZLYTE; type: biochemical; details: INX-0315 at 100nM
T18 construct: purchased Thermo Fisher Scientific SelectScreen (plus Nanosyn / Reaction Biology for CDK/cyclin lines)
Outline: as §3

[20] = NanoBRET intracellular IC50 ratio

T1 sequence (P06493 whole entry): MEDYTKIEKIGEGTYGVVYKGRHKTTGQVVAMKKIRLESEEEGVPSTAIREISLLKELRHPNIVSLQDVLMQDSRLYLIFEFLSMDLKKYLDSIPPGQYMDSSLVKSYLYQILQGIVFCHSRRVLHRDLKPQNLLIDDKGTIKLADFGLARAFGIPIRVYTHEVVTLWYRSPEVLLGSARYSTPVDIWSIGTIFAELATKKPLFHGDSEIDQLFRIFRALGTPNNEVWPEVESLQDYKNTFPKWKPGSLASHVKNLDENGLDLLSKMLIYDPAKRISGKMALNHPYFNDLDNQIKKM
T1 sequence (P14635 whole entry partner): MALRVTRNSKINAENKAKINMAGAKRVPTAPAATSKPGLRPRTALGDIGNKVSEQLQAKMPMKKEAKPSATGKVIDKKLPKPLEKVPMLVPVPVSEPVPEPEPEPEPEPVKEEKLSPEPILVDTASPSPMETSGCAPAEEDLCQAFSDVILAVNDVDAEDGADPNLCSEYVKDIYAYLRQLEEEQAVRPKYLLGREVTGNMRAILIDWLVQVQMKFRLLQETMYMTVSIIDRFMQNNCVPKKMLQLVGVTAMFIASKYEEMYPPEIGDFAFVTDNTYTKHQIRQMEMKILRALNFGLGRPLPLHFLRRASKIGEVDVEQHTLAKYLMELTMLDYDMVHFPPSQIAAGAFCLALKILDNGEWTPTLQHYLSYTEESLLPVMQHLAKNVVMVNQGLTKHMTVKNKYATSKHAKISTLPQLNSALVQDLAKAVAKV
T4 sequence (P50750 whole entry): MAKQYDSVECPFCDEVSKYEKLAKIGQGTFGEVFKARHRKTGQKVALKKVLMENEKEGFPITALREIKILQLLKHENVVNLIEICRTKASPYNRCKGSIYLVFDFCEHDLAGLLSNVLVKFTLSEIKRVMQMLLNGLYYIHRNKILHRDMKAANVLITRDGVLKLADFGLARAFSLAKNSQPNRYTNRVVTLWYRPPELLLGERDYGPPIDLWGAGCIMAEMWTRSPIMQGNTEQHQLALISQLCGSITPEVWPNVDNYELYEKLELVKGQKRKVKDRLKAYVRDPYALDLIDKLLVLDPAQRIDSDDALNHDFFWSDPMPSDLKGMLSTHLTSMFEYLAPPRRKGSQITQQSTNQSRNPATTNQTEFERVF
T4 sequence (O60563 whole entry partner): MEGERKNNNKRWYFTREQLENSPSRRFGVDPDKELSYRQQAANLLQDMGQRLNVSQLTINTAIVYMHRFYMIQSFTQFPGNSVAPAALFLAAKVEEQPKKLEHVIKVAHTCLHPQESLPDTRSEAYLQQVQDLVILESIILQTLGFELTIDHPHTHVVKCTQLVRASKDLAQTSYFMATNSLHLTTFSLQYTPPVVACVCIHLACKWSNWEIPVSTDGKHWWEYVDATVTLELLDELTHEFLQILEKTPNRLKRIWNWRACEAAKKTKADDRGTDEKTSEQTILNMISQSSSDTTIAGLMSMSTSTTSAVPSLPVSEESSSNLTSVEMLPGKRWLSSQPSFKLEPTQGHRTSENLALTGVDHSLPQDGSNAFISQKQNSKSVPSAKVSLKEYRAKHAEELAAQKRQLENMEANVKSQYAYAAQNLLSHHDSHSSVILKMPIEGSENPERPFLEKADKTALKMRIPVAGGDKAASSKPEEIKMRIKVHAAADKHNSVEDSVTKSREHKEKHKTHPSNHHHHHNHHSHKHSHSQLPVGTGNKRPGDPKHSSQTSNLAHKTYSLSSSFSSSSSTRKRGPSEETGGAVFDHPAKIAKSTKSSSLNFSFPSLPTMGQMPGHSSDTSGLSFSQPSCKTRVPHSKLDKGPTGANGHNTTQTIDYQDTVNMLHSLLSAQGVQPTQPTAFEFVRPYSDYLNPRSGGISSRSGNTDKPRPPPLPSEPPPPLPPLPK
T15 sequence (Q8IW41 whole entry): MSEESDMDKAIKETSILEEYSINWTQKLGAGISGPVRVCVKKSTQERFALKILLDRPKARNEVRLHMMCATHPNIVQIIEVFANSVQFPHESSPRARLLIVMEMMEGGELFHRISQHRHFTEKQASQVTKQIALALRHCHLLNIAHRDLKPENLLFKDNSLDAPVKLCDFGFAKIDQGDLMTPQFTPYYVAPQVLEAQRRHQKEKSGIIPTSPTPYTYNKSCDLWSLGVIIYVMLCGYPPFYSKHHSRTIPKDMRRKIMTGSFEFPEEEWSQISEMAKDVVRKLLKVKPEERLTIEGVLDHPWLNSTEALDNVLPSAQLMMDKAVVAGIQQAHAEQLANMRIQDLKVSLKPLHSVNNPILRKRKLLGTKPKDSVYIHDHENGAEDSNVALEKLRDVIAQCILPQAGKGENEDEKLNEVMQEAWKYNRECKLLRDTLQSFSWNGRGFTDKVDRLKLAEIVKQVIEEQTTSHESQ
T14 sequence (P04626 23-1255): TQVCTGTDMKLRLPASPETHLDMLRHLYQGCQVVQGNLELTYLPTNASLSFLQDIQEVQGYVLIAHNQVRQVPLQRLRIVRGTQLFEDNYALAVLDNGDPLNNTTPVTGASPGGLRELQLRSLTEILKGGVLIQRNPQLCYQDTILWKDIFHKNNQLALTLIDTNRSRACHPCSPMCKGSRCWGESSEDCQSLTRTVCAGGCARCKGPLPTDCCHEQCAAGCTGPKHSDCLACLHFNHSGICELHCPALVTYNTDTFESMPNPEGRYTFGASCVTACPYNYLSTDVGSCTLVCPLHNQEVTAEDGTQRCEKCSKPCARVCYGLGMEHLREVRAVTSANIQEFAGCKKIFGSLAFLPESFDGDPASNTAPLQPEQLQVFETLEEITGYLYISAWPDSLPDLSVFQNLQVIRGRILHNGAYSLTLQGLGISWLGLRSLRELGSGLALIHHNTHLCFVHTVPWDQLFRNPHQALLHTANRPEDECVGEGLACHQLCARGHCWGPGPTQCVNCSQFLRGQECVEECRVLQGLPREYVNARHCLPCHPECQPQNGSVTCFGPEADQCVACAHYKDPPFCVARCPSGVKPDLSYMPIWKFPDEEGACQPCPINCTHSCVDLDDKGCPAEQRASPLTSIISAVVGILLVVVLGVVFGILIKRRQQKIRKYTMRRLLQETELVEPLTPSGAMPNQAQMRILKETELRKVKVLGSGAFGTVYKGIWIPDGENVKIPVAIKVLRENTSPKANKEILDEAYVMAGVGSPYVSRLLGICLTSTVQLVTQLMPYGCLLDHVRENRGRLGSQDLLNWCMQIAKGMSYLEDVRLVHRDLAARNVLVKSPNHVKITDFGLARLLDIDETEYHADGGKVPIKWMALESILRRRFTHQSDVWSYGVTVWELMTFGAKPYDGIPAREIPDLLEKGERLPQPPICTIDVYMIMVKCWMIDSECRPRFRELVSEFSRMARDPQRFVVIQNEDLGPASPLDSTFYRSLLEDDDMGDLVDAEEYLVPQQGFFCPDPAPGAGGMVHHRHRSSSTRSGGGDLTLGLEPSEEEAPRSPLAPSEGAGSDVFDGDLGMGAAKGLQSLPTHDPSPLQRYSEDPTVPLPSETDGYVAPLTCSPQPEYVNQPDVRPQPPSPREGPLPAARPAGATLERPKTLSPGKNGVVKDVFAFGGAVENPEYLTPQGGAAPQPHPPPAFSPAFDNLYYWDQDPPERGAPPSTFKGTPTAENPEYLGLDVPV
T17 sequence (P31749 whole entry): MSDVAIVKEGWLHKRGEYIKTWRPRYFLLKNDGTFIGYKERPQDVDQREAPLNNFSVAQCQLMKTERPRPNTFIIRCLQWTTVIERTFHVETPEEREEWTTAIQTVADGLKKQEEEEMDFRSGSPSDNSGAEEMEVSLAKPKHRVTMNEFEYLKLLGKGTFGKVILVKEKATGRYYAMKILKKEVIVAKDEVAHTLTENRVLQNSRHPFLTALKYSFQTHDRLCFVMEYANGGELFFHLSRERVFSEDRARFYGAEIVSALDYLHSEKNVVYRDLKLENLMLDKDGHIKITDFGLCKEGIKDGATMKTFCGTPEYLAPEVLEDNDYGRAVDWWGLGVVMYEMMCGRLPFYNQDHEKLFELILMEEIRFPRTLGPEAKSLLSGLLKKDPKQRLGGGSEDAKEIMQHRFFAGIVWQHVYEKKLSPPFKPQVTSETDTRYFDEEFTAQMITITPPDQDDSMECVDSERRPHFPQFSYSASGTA
T9 sequence (O14757 whole entry): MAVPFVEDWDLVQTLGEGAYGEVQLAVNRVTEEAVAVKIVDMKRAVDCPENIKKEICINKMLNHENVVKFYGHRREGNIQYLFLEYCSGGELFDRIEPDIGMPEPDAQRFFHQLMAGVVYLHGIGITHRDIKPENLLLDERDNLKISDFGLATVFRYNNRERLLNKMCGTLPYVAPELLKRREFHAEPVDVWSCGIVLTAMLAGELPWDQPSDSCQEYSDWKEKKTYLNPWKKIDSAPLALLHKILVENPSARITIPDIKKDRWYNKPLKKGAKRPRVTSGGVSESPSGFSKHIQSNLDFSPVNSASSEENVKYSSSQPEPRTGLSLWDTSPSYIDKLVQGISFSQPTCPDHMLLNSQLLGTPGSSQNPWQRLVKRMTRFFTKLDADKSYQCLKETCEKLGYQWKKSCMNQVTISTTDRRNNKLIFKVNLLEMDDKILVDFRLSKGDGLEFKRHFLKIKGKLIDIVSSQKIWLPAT

NS(=O)(=O)c1ccc(Nc2ncc3cc4n(c3n2)C2(CCCCC2)C(=O)NN4)cc1 [INX-315]
half-life at 1 µmol/L ([1]; both sexes, human, liver microsomes, 1 µmol/L, 60 min incubation, read-out: Half-life): > 1 h | half-life at 1 µmol/L ([1]; both sexes, human, liver microsomes, longer than the duration of the experiment, read-out: calculated half-life (in parenthesis)): 1.78 h | half-life at 1 µmol/L ([1]; male, CD-1, liver microsomes, Mouse microsomes, 60 min incubation): 0.44 h | half-life at 1 µmol/L ([1]; male, Sprague-Dawley, rat, liver microsomes, 1 µmol/L, 60 min incubation, read-out: Half-life): > 1 h | half-life at 1 µmol/L ([1]; male, Sprague-Dawley, rat, liver microsomes, longer than the duration of the experiment, read-out: calculated half-life (in parenthesis)): 1.11 h | half-life at 1 µmol/L ([1]; male, beagle, dog, liver microsomes, 1 µmol/L, 60 min incubation, read-out: Half-life): > 1 h | half-life at 1 µmol/L ([1]; male, beagle, dog, liver microsomes, longer than the duration of the experiment, read-out: calculated half-life (in parenthesis)): 1.34 h | Fold vs. CDK2/E1, CDK1/cyclin B1 [2, 20]: 163 | IC50 ([2]; NanoBRET, HEK293 cells, value (SD), read-out: intracellular IC50 (nmol/L) CDK1/cyclin B1): 374 nmol/L | Fold vs. CDK2/E1, CDK2/cyclin E1 [3, 20]: 1 | increase of intracellular IC50 over the biochemical IC50, CDK2/cyclin E1 ([3]; NanoBRET vs biochemical): 4 fold | IC50 ([3]; NanoBRET, HEK293 cells, value (SD), read-out: intracellular IC50 (nmol/L) CDK2/cyclin E1): 2.3 nmol/L | Fold vs. CDK2/E1, CDK2/cyclin A1 [4, 20]: 31 | IC50 ([4]; NanoBRET, HEK293 cells, value (SD), read-out: intracellular IC50 (nmol/L) CDK2/cyclin A1): 71 nmol/L | Fold vs. CDK2/E1, CDK9/cyclin T1 [5, 20]: 1283 | IC50 ([5]; NanoBRET, HEK293 cells, value (SD), read-out: intracellular IC50 (nmol/L) CDK9/cyclin T1): 2950 nmol/L | inhibition at 0.1 µM [6]: 31% | inhibition at 0.1 µM [7]: 6% | inhibition at 0.1 µM [8]: 7% | inhibition at 0.1 µM [9]: 44% | inhibition at 0.1 µM [10]: 2% | inhibition at 0.1 µM [11]: 50% | inhibition at 0.1 µM [12]: 10% | inhibition at 0.1 µM [13]: 9% | inhibition at 0.1 µM [14]: 8% | inhibition at 0.1 µM [15]: 0% | inhibition at 0.1 µM [16]: 2% | inhibition at 0.1 µM [17]: 20% | inhibition at 0.1 µM [18]: 6% | inhibition at 0.1 µM [19]: 53%

— paper PMC10905675, “INX-315, a Selective CDK2 Inhibitor, Induces Cell Cycle Arrest and Senescence in Solid Tumors” (Cancer Discovery, 2023)
